Measurements taken from PMC10974317, “Anti-COVID Drugs (MMV COVID Box) as Leishmanicidal Agents: Unveiling New Therapeutic Horizons” (Pharmaceuticals, 2024).
Read-outs that look alike come from different tables or passages of the source.

Columns and labels:
[1] = tested on: Leishmania amazonensis promastigotes; experiment: Mitochondrial membrane potential disruption (JC-1); format: cell-based; settings: 24 h with IC90, vs negative control
Description: JC-1 Mitochondrial Membrane Potential kit (Cayman Chemical, Ann Arbor, MI, USA) was employed following the manufacturer’s instructions. […] Three independent experiments were conducted for this assay.

[2] = tested on: Leishmania amazonensis promastigotes; experiment: Leishmanicidal activity against promastigotes (alamarBlue assay); format: cell-based; settings: 72 h, mean ± SD, read-out: inhibitory concentration 50 (IC50), promastigote stage, L. amazonensis
Description: (§1) Initial screening of the 160 compounds against Leishmania promastigotes was performed at 10 μM following MMV foundation instructions provided with the box. The compound activity was assessed using the modified alamarBlue® assay (Invitrogen/Life Technologies, Madrid, Spain) with 10^6 promastigotes per well. DMSO concentration never surpassed 0.1% (v/v) to avoid impacting parasite proliferation or morphology. Subsequently, an EnSpire multimode plate reader (PerkinElmer, MA, USA) was used to measure fluorescence after 72 h. […] Serial dilutions were made in 96-well plates and incubated with parasites for 72 h after adding alamarBlue®. IC50 values were calculated using SigmaPlot 14.0 (Systat Software Inc., Chicago, IL, USA) based on fluorescence measurements. Each concentration was tested in duplicate across three independent experiments.

[3] = tested on: Leishmania donovani promastigotes; experiment: as above; format: cell-based; settings: 72 h; for IC50: Leishmania donovani, read-out: inhibitory concentration 50 (IC50), promastigote stage, L. donovani
Description: as §1

[4] = tested on: L. amazonensis intracellular amastigotes; experiment: Intracellular amastigote activity (parasite rescue and transformation assay); format: cell-based, Leishmania amazonensis; settings: for Selectivity index (CC50/IC50): CC50 murine macrophages / IC50 L. amazonensis amastigotes
Description: Intracellular amastigote activity against L. amazonensis was measured through a parasite rescue and transformation assay for the purchased compounds. Macrophages were seeded in a 96-well plate and infected with promastigotes at the metacyclic stage for subsequent compound treatment. After incubation, macrophages were lysed, and the medium and conditions were changed to stimulate amastigote transformation. The results were assessed using alamarBlue® [28].

[5] = promastigotes, alamarBlue, mean ± SD, w/a: without activity
[6] = Leishmania amazonensis, Macrophage, in Mus musculus, intracellular amastigotes in murine macrophages, read-out: IC50, amastigote stage, L. amazonensis

Row | SMILES | change in mitochondrial membrane potential (ΔΨm) [1] | IC50 ([2]; Leishmania amazonensis) [nM] | IC50 [3, 5] [µM] | Selectivity index (CC50/IC50) [4] | IC50 [2] [nM] | IC50 [4, 6] [nM] | other results
1 | CC(C)C[C@H](NC(=O)[C@H](Cc1ccccc1)NC(=O)c1cnccn1)B(O)O [Bortezomib] | significant decrease | 420 ± 80 | 37.2 ± 2.51 |  |  |  | IC50 ([4]; Leishmania amazonensis, Macrophage, in Mus musculus, read-out: IC50, amastigote stage, L. amazonensis, intracellular amastigotes in murine macrophages): 40 ± 10 nM
2 | CCCCCCCCCCCCCCCCOP(=O)([O-])OCC[N+](C)(C)C [Miltefosine] |  |  |  | 23 |  |  | IC50 [3]: 72.2 ± 3.06 µM
3 | C[C@@H]1CCCN1CCc1cc2cc(-c3ccc(C#N)cc3)ccc2o1 [ABT239] |  | < 1400 | 1.68 ± 0.25 | 46 | 1310 ± 70 | 490 ± 130 | 
4 | C=CCNc1nc(NCC=C)nc(N2CCN(C(c3ccc(F)cc3)c3ccc(F)cc3)CC2)n1 [Almitrine] | significant decrease | < 1400 |  |  | 1190 ± 20 | < 2400 | inhibitory concentration 50 (IC50), promastigote stage, L. donovani [3, 5]: w/a at 100; IC50 ([4]; read-out: IC50, amastigote stage, L. amazonensis, intracellular amastigotes in murine macrophages): 2180 ± 470 nM
5 | CO[C@@H]1[C@H](N(C)C(=O)c2ccccc2)C[C@H]2O[C@]1(C)n1c3ccccc3c3c4c(c5c6ccccc6n2c5c31)C(=O)NC4 [Midostaurin] |  |  |  |  |  |  | activity against the amastigote form ([4]; at 10 μM): no activity
6 | CC(C)N1CCN(c2ccc(OCC3COC(Cn4cncn4)(c4ccc(Cl)cc4Cl)O3)cc2)CC1 (stereo not drawn) [Terconazole] | significant decrease | 3820 ± 1040 | 11.6 ± 1.38 | 19 |  | < 2400 | IC50 ([4]; intracellular amastigotes in murine macrophages, read-out: IC50, amastigote stage, L. amazonensis): 2380 ± 400 nM
